This note sets out measurements from publication doi:10.1101/2023.12.06.570349v1 (biorxiv, 2023).

Experiment [1] addresses T1, H3R-415 (Homo sapiens, UniProt Q9Y5N1). Briefly: cell-based. Also on record: species or system HEK293-EPAC stably expressing H3R isoform. As to conditions: for Emax: HEK293-EPAC stably expressing H3R isoform, read-out: H3R-415 α.
Experiment [2] has as its target T2, H3R-365 (Homo sapiens, UniProt Q9Y5N1). Briefly: cell-based. On the set-up: species or system HEK293-EPAC stably expressing H3R isoform. As to conditions: for Emax: HEK293-EPAC stably expressing H3R isoform, read-out: H3R-365 α.
Experiment [3] has as its target T3, H3R-445 (Homo sapiens, UniProt Q9Y5N1). Put plainly: cell-based. Also on record: species or system HEK293-EPAC stably expressing H3R isoform. As to conditions: for Emax: HEK293-EPAC stably expressing H3R isoform, read-out: H3R-445 α.
In experiment [4] the target is T4, H3R-373 (Homo sapiens, UniProt Q9Y5N1, INS445KMKKKTCL). Also on record: species or system HEK293-EPAC stably expressing H3R isoform. As to conditions: agonist.
Experiment [5] deals with T5, H3R-413 (Homo sapiens, UniProt Q9Y5N1, DEL274-305). Put plainly: cell-based. Also on record: species or system HEK293-EPAC stably expressing H3R isoform. As to conditions: for H3R-413 α: relative to histamine, agonist; for Emax: HEK293-EPAC stably expressing H3R isoform, read-out: H3R-413 α.
For experiment [6], the target named is T6, H3R-453 (Homo sapiens, UniProt Q9Y5N1). Put plainly: cell-based. Also on record: species or system HEK293-EPAC stably expressing H3R isoform. As to conditions: for H3R-453 α: relative to histamine, agonist; for Emax: HEK293-EPAC stably expressing H3R isoform, read-out: H3R-453 α.
The target of experiment [7] is T1, H3R-415. Put plainly: cell-based. On the set-up: species or system HEK293-EPAC stably expressing H3R isoform. As to conditions: for H3R-415 α: relative to histamine, agonist; for Emax: HEK293-EPAC stably expressing H3R isoform, read-out: H3R-415 α.
For experiment [8], the target named is T4, H3R-373. Put plainly: cell-based. As to conditions: for H3R-373 α: relative to histamine, agonist; for Emax: HEK293-EPAC stably expressing H3R isoform, read-out: H3R-373 α. On the set-up: species or system HEK293-EPAC stably expressing H3R isoform.
Experiment [9] has as its target T3, H3R-445. Briefly: cell-based. Also on record: species or system HEK293-EPAC stably expressing H3R isoform. As to conditions: for H3R-445 α: relative to histamine, agonist; for Emax: HEK293-EPAC stably expressing H3R isoform, read-out: H3R-445 α.
Experiment [10] deals with T2, H3R-365. Briefly: cell-based. On the set-up: species or system HEK293-EPAC stably expressing H3R isoform. As to conditions: for H3R-365 α: relative to histamine, agonist; for Emax: HEK293-EPAC stably expressing H3R isoform, read-out: H3R-365 α.
The target in experiment [11] is T5, H3R-413. Briefly: cell-based. Also on record: species or system HEK293-EPAC stably expressing H3R isoform.
For experiment [12], the target named is T1, H3R-415. Put plainly: cell-based. Also on record: species or system HEK293-EPAC stably expressing H3R isoform.
Experiment [13] deals with T5, H3R-413. Briefly: biochemical.
Experiment [14] addresses T4, H3R-373.
Experiment [15] addresses T2, H3R-365. Put plainly: cell-based. On the set-up: species or system HEK293-EPAC stably expressing H3R isoform.
For experiment [16], the target named is T4, H3R-373. On the set-up: species or system HEK293-EPAC stably expressing H3R isoform. As to conditions: inverse agonism, constitutive signaling; antagonist.
Experiment [17] addresses T1, H3R-415. Briefly: biochemical.
The target of experiment [18] is T3, H3R-445. Put plainly: biochemical.
In experiment [19] the target is T2, H3R-365. Briefly: biochemical.
Experiment [20] deals with T6, H3R-453. On the set-up: species or system HEK293-EPAC stably expressing H3R isoform. As to conditions: agonist.
In experiment [21] the target is T3, H3R-445. Briefly: cell-based. Also on record: species or system HEK293-EPAC stably expressing H3R isoform.
For experiment [22], the target named is T3, H3R-445. Briefly: cell-based. Also on record: species or system HEK293-EPAC stably expressing H3R isoform. The source holds these as a separate data set.
The mark [23] stands for this setting: inverse agonism, pitolisant = -1, antagonist.

Each structure is given as a SMILES string. Where two headings read alike, the source gives them in different places.

Turning to `C[C@@H]1CCCN1CCc1cc2cc(-c3ccc(C#N)cc3)ccc2o1` [ABT-239, 4-[2-[2-[(2R)-2-methylpyrrolidin-1-yl]ethyl]-1-benzofuran-5-yl]benzonitrile], the Emax is -50 ± 30% at H3R-415 [1], -110% at H3R-365 [2] and -100 ± 20% at H3R-445 [3].

For the compound `c1nc(CC2CCNCC2)c[nH]1` [Immepip], the “H3R-373 pEC50” value at H3R-373 [4] worked out at 10.1 ± 0.2 M. Moreover, the “H3R-413 α” value on H3R-413 [5] was 1.0 ± 0.0%. Besides, the “H3R-453 α” value at H3R-453 [6] is 0.9 ± 0.1%. Besides, at H3R-415 [7], the “H3R-415 α” value worked out at 0.9 ± 0.1%. Also, the “H3R-373 α” value on H3R-373 [8] amounted to 0.8 ± 0.2%. On H3R-445 [9], the “H3R-445 α” value was 1.0 ± 0.0%. Besides, the “H3R-365 α” value on H3R-365 [10] amounted to 1.1 ± 0.1%. Also, on H3R-413 [11], the EC50 is 0.2 nM.

`CN1CCC(Cc2c[nH]cn2)CC1` [Methimepip]: at H3R-413 [5], the “H3R-413 α” value turned out to be 1.0 ± 0.1%. The “H3R-453 α” value on H3R-453 [6] is 1.1 ± 0.2%. For the same compound, the “H3R-415 α” value on H3R-415 [7] is listed as 0.8 ± 0.1%. In addition, at H3R-373 [8], the “H3R-373 α” value was 0.8 ± 0.1%. Moreover, the “H3R-445 α” value at H3R-445 [9] worked out at 1.0 ± 0.2%. The “H3R-365 α” value on H3R-365 [10] is on record as 0.8 ± 0.4%. The same compound showed an EC50 on H3R-413 [11] of 0.631 nM.

As to `CCNC(=O)C1CC(F)(c2ccc(CN3CCCC3)c(F)c2)C1` (centres unmarked) [PF-3654746, N-ethyl-3-fluoro-3-[3-fluoro-4-(pyrrolidin-1-ylmethyl)phenyl]cyclobutane-1-carboxamide], the EC50 on H3R-415 [12] is 0.501 nM; at H3R-365 [15], 1 nM. For the same compound, the Ki was 5.01 nM on H3R-413 [13] and 126 nM at H3R-373 [14]. Moreover, the Emax is -110 ± 30% at H3R-415 [1], -100 ± 10% on H3R-365 [2] and -120 ± 40% on H3R-445 [3]. In addition, at H3R-373 [16], the “H3R-373 pEC50” value is listed as 9.1 ± 0.4 M.

Take `N=C(N)SCCCc1cnc[nH]1` [VUF8328, 3-(1H-imidazol-5-yl)propyl carbamimidothioate]: the “H3R-373 pEC50” value at H3R-373 [4] is recorded as 9.0 ± 0.8 M. In addition, the Ki is 1.26 nM at H3R-413 [13]; 0.316 nM at H3R-373 [14]; 1.58 nM on H3R-415 [17]; 1.26 nM at H3R-445 [18]; 0.794 nM at H3R-365 [19]. Further, the Emax on H3R-413 [5] came to 80 ± 10%; on H3R-453 [6], 90 ± 40%; on H3R-415 [7], 50 ± 20%; at H3R-373 [8], 70 ± 30%; on H3R-445 [9] it was 80 ± 20%; on H3R-365 [10] it was 70 ± 20%.

Regarding `CCCNC1CN(c2ccnc(N)n2)C1` [VUF16839, 4-(3-(Propylamino)azetidin-1-yl)pyrimidin-2-amine], the Ki at H3R-413 [13] was 2 nM; on H3R-373 [14], 0.398 nM. Besides, the Emax on H3R-413 [5] is 80 ± 20%; on H3R-453 [6] it was 90 ± 30%; on H3R-415 [7], 50 ± 10%; on H3R-373 [8], 60 ± 20%; on H3R-445 [9], 90%; on H3R-365 [10], 70 ± 20%. Moreover, at H3R-453 [20], the “H3R-453 pEC50” value was 8.0 ± 0.1 M. This compound had an EC50 at H3R-445 [21] of 1 nM.

For the compound `O=C(c1ccc(CN2CCOCC2)cc1)N1CCN(C2CC2)CC1` [bavisant, (4-Cyclopropyl-piperazin-1-yl)-(4-morpholin-4-ylmethyl-phenyl)-methanone], the results for the EC50 on H3R-415 [12], on H3R-365 [15] and at H3R-445 [22] were 0.794 nM, 3.98 nM and 1 nM, respectively. In addition, the Ki on H3R-413 [13] is 2.51 nM; on H3R-373 [14], 79.4 nM. In addition, at H3R-415 [1] (setting [23]), the “H3R-415 α” value is -0.9 ± 0.0%. The “H3R-365 α” value on H3R-365 [2] (setting [23]) is given as -1.0 ± 0.0%. Further, the “H3R-445 α” value on H3R-445 [3] (setting [23]) is -1.0 ± 0,3%.

Regarding `N=C(NCc1ccc(Cl)cc1)SCCCc1c[nH]cn1` [clobenpropit, N’-[(4-chlorophenyl)methyl]-1-[3-(3H-imidazol-4-yl)propylsulfanyl]methanimidamide], the Emax on H3R-415 [1] is -80%; at H3R-365 [2], -80 ± 10%; at H3R-445 [3], -100 ± 30%.

For the compound `CN(C)CCCCCc1c[nH]cn1` [dimethyl-impentamine, 5-(3H-imidazol-4-yl)-N,N-dimethylpentan-1-amine], the “H3R-373 pEC50” value on H3R-373 [4] was found to be 7.9 ± 0.4 M. The Ki was 31.6 nM on H3R-413 [13]; 20 nM at H3R-373 [14]; 31.6 nM on H3R-415 [17]; 25.1 nM on H3R-445 [18]; 20 nM on H3R-365 [19]. Besides, the Emax at H3R-413 [5] was found to be 50 ± 20%; on H3R-415 [7], 40 ± 10%; on H3R-373 [8], 70 ± 10%; at H3R-445 [9], 60 ± 20%; on H3R-365 [10], 100 ± 20%. The compound also had an EC50 at H3R-413 [11] of 79.4 nM.

Consider `NCCCCc1c[nH]cn1` [imbutamine, 4-(3H-imidazol-4-yl)butan-1-amine], for which the “H3R-373 pEC50” value at H3R-373 [4] was 9.5 ± 0.4 M. In addition, the Ki is 1.58 nM on H3R-413 [13] and 0.398 nM on H3R-373 [14]. For the same compound, the Emax stood at 90% on H3R-413 [5]; 120 ± 30% on H3R-453 [6]; 80 ± 10% on H3R-415 [7]; 80 ± 10% at H3R-373 [8]; 100 ± 10% at H3R-445 [9]; 90 ± 30% at H3R-365 [10].

With `N=C(N)SCCc1cnc[nH]1` [imetit, 2-(3H-imidazol-4-yl)ethylsulfanylmethanimidamide], the Ki on H3R-413 [13] is 0.631 nM; on H3R-373 [14] it was 0.126 nM. Moreover, the Emax stood at 100% on H3R-413 [5]; 100 ± 30% at H3R-453 [6]; 70% at H3R-415 [7]; 80 ± 30% on H3R-373 [8]; 90 ± 10% on H3R-445 [9]; 110 ± 20% at H3R-365 [10]. The EC50 on H3R-413 [11] is 0.316 nM.

Take `c1cc(Cc2cnc[nH]2)ccn1` [immethridine, 4-(3H-imidazol-4-ylmethyl)pyridine]: the “H3R-373 pEC50” value at H3R-373 [4] is given as 10.1 ± 0.7 M. In addition, the Ki was 0.398 nM on H3R-413 [13] and 0.1 nM on H3R-373 [14]. Further, the Emax at H3R-413 [5] came to 100 ± 10%; at H3R-453 [6], 110 ± 40%; at H3R-415 [7], 70 ± 10%; at H3R-373 [8], 90 ± 10%; at H3R-445 [9], 90 ± 20%; at H3R-365 [10], 110 ± 50%.

On to `S=C(NC1CCCCC1)N1CCC(c2c[nH]cn2)CC1` [thioperamide, N-cyclohexyl-4-(3H-imidazol-4-yl)piperidine-1-carbothioamide], for which the figures for the Emax at H3R-415 [1], on H3R-365 [2] and on H3R-445 [3] were -80 ± 80%, -100% and -90 ± 10%, respectively.

For orientation: EC50 means the concentration needed to bring the measured effect to its halfway point. Read a low EC50 as an effect from little substance. The Ki is the equilibrium dissociation constant of an inhibitor or competing ligand from its target. Read a high Ki as weaker binding.
